In ChEMBL document CHEMBL1201862, “PubChem BioAssay data set” (2004):
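The compound was tested at five concentrations on cells cultured in 96-well plates, with a 48-hour exposure period. At the GI50, growth is halved.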 The source made the active and inactive calls. Cut-off read from the data, not from the text of the source: active = GI50 up to about 1.1 µM and inactive = higher.

Assays:
Assay in all cases: inhibition of tumour cell growth, NCI panel, 48 h
786-0 = test system: 786-0
BT-549 = test system: BT-549
COLO 205 = test system: COLO 205
DMS-273 = test system: DMS-273
HCC 2998 = test system: HCC 2998
HCT-116 = test system: HCT-116
HL-60 = test system: HL-60
MDA-N = test system: MDA-N
MOLT-4 = test system: MOLT-4
NCI-H23 = test system: NCI-H23
NCI-H460 = test system: NCI-H460
OVCAR-3 = test system: OVCAR-3
OVCAR-4 = test system: OVCAR-4
RXF 393 = test system: RXF 393
SF-295 = test system: SF-295
SK-MEL-5 = test system: SK-MEL-5
SN12C = test system: SN12C
SW-620 = test system: SW-620
TK-10 = test system: TK-10
UO-31 = test system: UO-31

| Structure (SMILES) | GI50 (786-0) | GI50 (BT-549) | GI50 (COLO 205) | GI50 (DMS-273) | GI50 (HCC 2998) | GI50 (HCT-116) | GI50 (HL-60) | GI50 (MDA-N) | GI50 (MOLT-4) | GI50 (NCI-H23) | GI50 (NCI-H460) | GI50 (OVCAR-3) | GI50 (OVCAR-4) | GI50 (RXF 393) | GI50 (SF-295) | GI50 (SK-MEL-5) | GI50 (SN12C) | GI50 (SW-620) | GI50 (TK-10) | GI50 (UO-31) |
| --- | --- | --- | --- | --- | --- | --- | --- | --- | --- | --- | --- | --- | --- | --- | --- | --- | --- | --- | --- | --- |
| COC12C(COC(=O)NCCO)C3=C(C(=O)C(C)=C(N)C3=O)N1CC1NC12 (stereo not given) | 20.9 µM (inactive) | 54.5 µM (inactive) | 37.7 µM (inactive) | 2.52 µM (inactive) | 34.8 µM (inactive) | 18.9 µM (inactive) | 58.9 µM (inactive) | 86.1 µM (inactive) | 35.2 µM (inactive) | 4.94 µM (inactive) | 5.01 µM (inactive) | 68.7 µM (inactive) | 65.8 µM (inactive) | 24 µM (inactive) | 6.62 µM (inactive) | 14.2 µM (inactive) | 7.94 µM (inactive) | 16.7 µM (inactive) | 83.2 µM (inactive) | > 100 µM (inactive) |
| CC1=CC(=O)c2ccc3c4ccccc4n(C)c3c2C1=O | 56 µM (inactive) | 41.8 µM (inactive) | > 85.9 µM (inactive) | 43.4 µM (inactive) | > 96.4 µM (inactive) | > 88.5 µM (inactive) | 22.8 µM (inactive) | 16.6 µM (inactive) | 19.4 µM (inactive) | 14 µM (inactive) | 29.4 µM (inactive) | 54.8 µM (inactive) | 74 µM (inactive) | 43.6 µM (inactive) | > 54.5 µM (inactive) | 13.6 µM (inactive) | > 69 µM (inactive) | 92.3 µM (inactive) | > 100 µM (inactive) | > 65.9 µM (inactive) |
| COc1ccc(C(=O)C(CC2C(=O)NC(=O)NC2=O)c2ccc(OC)cc2)cc1 (stereo not given) | > 100 µM (inactive) | – | > 100 µM (inactive) | > 100 µM (inactive) | > 100 µM (inactive) | > 100 µM (inactive) | > 100 µM (inactive) | – | > 100 µM (inactive) | > 100 µM (inactive) | > 100 µM (inactive) | > 100 µM (inactive) | > 100 µM (inactive) | > 100 µM (inactive) | > 100 µM (inactive) | > 100 µM (inactive) | > 100 µM (inactive) | > 100 µM (inactive) | > 100 µM (inactive) | > 100 µM (inactive) |
| C/C(=N/O)c1ccc2c(c1)/C(=N/O)c1cc(/C(C)=N/O)ccc1-2 | 17.2 µM (inactive) | – | 17.8 µM (inactive) | 23.8 µM (inactive) | 15.3 µM (inactive) | 20.1 µM (inactive) | 18.4 µM (inactive) | – | 2.49 µM (inactive) | 12.9 µM (inactive) | 17.7 µM (inactive) | 20.3 µM (inactive) | 16.3 µM (inactive) | 23 µM (inactive) | 15.3 µM (inactive) | 14.9 µM (inactive) | 16.3 µM (inactive) | 14.5 µM (inactive) | > 10 µM (inactive) | 15.1 µM (inactive) |
| CN(C)/N=N/c1cccc(C(N)=O)c1 | > 100 µM (inactive) | – | > 100 µM (inactive) | > 100 µM (inactive) | > 100 µM (inactive) | > 100 µM (inactive) | > 100 µM (inactive) | – | > 100 µM (inactive) | > 100 µM (inactive) | > 100 µM (inactive) | > 100 µM (inactive) | > 100 µM (inactive) | > 100 µM (inactive) | > 100 µM (inactive) | > 100 µM (inactive) | > 100 µM (inactive) | > 100 µM (inactive) | > 100 µM (inactive) | > 100 µM (inactive) |
| O=C(O)CSc1nnc(-c2ccccc2O)[nH]1 | > 100 µM (inactive) | – | – | > 100 µM (inactive) | > 100 µM (inactive) | > 100 µM (inactive) | > 100 µM (inactive) | – | > 100 µM (inactive) | > 100 µM (inactive) | > 100 µM (inactive) | > 100 µM (inactive) | > 100 µM (inactive) | > 100 µM (inactive) | > 100 µM (inactive) | > 100 µM (inactive) | > 100 µM (inactive) | > 100 µM (inactive) | > 100 µM (inactive) | > 100 µM (inactive) |
| O=[N+]([O-])c1cc(/C=N/NS(=O)(=O)c2ccc(F)cc2)c(O)c([N+](=O)[O-])c1 | 41.3 µM (inactive) | – | 18.9 µM (inactive) | 30.8 µM (inactive) | > 100 µM (inactive) | 33.7 µM (inactive) | 38.5 µM (inactive) | – | 21.9 µM (inactive) | 24.9 µM (inactive) | 28.8 µM (inactive) | 29 µM (inactive) | 58.1 µM (inactive) | 36.6 µM (inactive) | 52.8 µM (inactive) | 25.7 µM (inactive) | 33.7 µM (inactive) | 41.3 µM (inactive) | 57.1 µM (inactive) | > 100 µM (inactive) |
| C=CCC1C(=O)CC2(C)CC(=O)C(CC=C)C12C (stereo not given) | > 100 µM (inactive) | – | > 100 µM (inactive) | > 100 µM (inactive) | > 100 µM (inactive) | > 100 µM (inactive) | > 100 µM (inactive) | – | > 100 µM (inactive) | > 100 µM (inactive) | > 100 µM (inactive) | > 100 µM (inactive) | 91 µM (inactive) | > 100 µM (inactive) | > 100 µM (inactive) | > 100 µM (inactive) | > 100 µM (inactive) | > 100 µM (inactive) | > 100 µM (inactive) | > 100 µM (inactive) |
| CC1=NN(C(=O)Nc2ccccc2)C(=O)C2CCC(=O)N12 (stereo not given) | > 100 µM (inactive) | – | > 100 µM (inactive) | > 100 µM (inactive) | > 100 µM (inactive) | > 100 µM (inactive) | > 100 µM (inactive) | – | > 100 µM (inactive) | > 100 µM (inactive) | > 100 µM (inactive) | > 100 µM (inactive) | > 100 µM (inactive) | > 100 µM (inactive) | > 100 µM (inactive) | > 100 µM (inactive) | > 100 µM (inactive) | > 100 µM (inactive) | > 100 µM (inactive) | > 100 µM (inactive) |
| CCCCCCCCCCCCCCCCCCOCC(COCCOCC[N+]1(CCCCCC(=O)[O-])CCCC1)Oc1ncccn1 (stereo not given) | 7.23 µM (inactive) | 7.29 µM (inactive) | 1.11 µM (active) | 0.37 µM (active) | 2.51 µM (inactive) | 1.82 µM (inactive) | 0.395 µM (active) | 10.5 µM (inactive) | 4.92 µM (inactive) | 4.88 µM (inactive) | 2.36 µM (inactive) | 5.2 µM (inactive) | 2.2 µM (inactive) | 1.4 µM (inactive) | 4.88 µM (inactive) | 4.22 µM (inactive) | 4.44 µM (inactive) | 4.57 µM (inactive) | 4.06 µM (inactive) | 10.1 µM (inactive) |
